Target: T1, voltage-dependent T-type calcium channel subunit alpha-1G (Cav3.2) (Homo sapiens, UniProt O95180)
T1 construct: expressed in transfected cells; host or cells: HEK293
Assay: FLIPR calcium flux assay, HEK293 cells recombinantly expressing Cav3.2
Assay type: cell-based
Conditions: Cav3.2-channel, Fluo-4-AM, 3 min incubation, stimulation with 10 mM CaCl2
Procedure, shortened: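 HEK293 cells stably expressing human Cav3.2 were loaded with Fluo-4-AM. Compounds diluted in TEAC buffer (pH 7.2) were preincubated for 3 min, then Ca2+ entry was triggered by 10 mM final CaCl2. Inhibition curves were fitted sigmoidally to the area under the fluorescence trace.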

T1 sequence (O95180 whole entry): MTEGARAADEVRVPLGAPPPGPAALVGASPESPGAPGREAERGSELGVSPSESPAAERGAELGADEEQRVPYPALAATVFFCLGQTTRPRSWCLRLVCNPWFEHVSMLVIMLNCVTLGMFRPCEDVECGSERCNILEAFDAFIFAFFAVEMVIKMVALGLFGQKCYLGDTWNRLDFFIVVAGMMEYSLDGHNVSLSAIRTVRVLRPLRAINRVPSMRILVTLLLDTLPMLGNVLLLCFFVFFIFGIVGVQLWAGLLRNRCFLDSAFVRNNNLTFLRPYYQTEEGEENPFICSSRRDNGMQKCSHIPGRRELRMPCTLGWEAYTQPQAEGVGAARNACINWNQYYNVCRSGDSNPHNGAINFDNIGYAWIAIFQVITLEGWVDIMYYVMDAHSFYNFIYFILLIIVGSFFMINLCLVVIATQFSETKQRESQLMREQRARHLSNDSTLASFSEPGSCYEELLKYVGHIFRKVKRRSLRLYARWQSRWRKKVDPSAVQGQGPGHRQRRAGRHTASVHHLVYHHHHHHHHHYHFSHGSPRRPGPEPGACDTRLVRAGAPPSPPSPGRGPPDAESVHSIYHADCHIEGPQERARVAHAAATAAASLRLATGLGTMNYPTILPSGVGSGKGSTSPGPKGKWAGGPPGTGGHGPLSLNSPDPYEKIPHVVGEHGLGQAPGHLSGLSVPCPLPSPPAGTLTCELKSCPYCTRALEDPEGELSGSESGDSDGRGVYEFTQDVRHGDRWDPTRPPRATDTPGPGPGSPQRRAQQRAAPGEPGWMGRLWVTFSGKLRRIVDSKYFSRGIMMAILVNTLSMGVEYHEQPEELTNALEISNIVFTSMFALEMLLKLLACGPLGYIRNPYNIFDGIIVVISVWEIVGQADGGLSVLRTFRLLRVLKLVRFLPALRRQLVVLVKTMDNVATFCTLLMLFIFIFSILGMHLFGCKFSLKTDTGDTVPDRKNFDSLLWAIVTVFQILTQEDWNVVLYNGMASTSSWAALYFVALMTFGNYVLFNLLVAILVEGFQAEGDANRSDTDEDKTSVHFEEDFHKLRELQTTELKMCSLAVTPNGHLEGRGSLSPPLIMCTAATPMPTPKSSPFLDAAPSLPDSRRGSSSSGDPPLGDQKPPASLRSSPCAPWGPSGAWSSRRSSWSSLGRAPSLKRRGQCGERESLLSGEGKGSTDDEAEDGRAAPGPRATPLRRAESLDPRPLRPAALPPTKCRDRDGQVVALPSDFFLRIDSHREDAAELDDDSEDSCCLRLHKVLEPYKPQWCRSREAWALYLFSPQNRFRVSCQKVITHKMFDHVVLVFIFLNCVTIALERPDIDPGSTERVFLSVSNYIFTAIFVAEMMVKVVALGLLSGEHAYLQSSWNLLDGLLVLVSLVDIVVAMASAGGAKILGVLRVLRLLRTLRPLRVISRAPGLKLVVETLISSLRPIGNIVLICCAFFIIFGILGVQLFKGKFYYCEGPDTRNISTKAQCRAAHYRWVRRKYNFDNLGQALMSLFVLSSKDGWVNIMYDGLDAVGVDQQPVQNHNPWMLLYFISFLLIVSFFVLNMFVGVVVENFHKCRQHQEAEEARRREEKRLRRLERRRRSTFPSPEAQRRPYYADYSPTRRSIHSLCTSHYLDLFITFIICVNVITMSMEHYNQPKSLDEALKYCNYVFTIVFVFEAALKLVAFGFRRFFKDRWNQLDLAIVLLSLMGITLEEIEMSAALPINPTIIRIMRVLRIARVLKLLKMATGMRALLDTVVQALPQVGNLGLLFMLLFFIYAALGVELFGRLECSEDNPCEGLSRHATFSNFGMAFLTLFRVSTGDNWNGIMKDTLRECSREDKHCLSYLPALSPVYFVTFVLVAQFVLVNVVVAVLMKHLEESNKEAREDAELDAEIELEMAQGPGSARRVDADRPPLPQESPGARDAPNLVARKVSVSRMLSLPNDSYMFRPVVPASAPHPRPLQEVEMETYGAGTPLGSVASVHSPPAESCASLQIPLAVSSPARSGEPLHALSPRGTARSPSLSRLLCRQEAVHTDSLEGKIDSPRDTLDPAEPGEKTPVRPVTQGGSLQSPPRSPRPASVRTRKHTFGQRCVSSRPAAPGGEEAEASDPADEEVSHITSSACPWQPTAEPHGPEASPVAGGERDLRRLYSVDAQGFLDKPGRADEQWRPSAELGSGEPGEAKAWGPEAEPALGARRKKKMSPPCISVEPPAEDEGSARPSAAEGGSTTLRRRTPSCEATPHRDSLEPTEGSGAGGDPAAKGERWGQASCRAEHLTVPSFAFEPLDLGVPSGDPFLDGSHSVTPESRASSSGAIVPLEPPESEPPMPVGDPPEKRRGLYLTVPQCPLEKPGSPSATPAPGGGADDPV

Compound | IC50 [nM]
N#Cc1cc(Cn2ccc(NC(=O)Cc3ccc(C4(C(F)(F)F)CC4)cc3)n2)ncc1F [Example 402, N-[1-(4-Cyano-5-fluoro-pyridin-2-ylmethyl)-1H-pyrazol-3-yl]-2-[4-(1-trifluoromethyl-cyclopropyl)-phenyl]-acetamide] | 106
CC(C)c1ccc(CC(=O)Nc2ccn(Cc3ccc(C#N)cn3)n2)cc1 [Example 71, N-[1-(5-Cyano-pyridin-2-ylmethyl)-1H-pyrazol-3-yl]-2-(4-isopropyl-phenyl)-acetamide] | 60
O=C(Cc1ccc(N2CCCC2)nc1)Nc1ccn(Cc2ccc(F)c(F)c2)n1 [Example 175, N-[1-(3,4-Difluoro-benzyl)-1H-pyrazol-3-yl]-2-(6-pyrrolidin-1-yl-pyridin-3-yl)-acetamide] | 17
Cc1ccc(Cn2ccc(NC(=O)Cc3ccc(N(C)C)cc3)n2)cc1F [Example 32, 2-(4-Dimethylamino-phenyl)-N-[1-(3-fluoro-4-methyl-benzyl)-1H-pyrazol-3-yl]-acetamide] | 7.6
N#Cc1ccc(Cn2ccc(NC(=O)Cc3ccc(N4CCC(F)(F)C4)nc3)n2)cc1F [Example 294, N-[1-(4-Cyano-3-fluoro-benzyl)-1H-pyrazol-3-yl]-2-[6-(3,3-difluoro-pyrrolidin-1-yl)-pyridin-3-yl]-acetamide] | 22
N#Cc1ccc(Cn2ccc(NC(=O)Cc3ccc(N4CCC(F)(F)C4)cc3)n2)cc1 [Example 76, N-[1-(4-Cyano-benzyl)-1H-pyrazol-3-yl]-2-[4-(3,3-difluoro-pyrrolidin-1-yl)-phenyl]-acetamide] | 6.1
CC(C)c1ccc(CC(=O)Nc2ccn(Cc3ccc(C#N)c(C4CC4)n3)n2)cc1 [Example 133, N-[1-(5-Cyano-6-cyclopropyl-pyridin-2-ylmethyl)-1H-pyrazol-3-yl]-2-(4-isopropyl-phenyl)-acetamide] | 191
N#Cc1ccc(Cn2ccc(NC(=O)Cc3ccc(C4(C#N)CC4)c(C(F)(F)F)c3)n2)nc1 [Example 403, 2-[4-(1-Cyano-cyclopropyl)-3-trifluoromethyl-phenyl]-N-[1-(5-cyano-pyridin-2-ylmethyl)-1H-pyrazol-3-yl]-acetamide] | 97
COc1ccc(Cn2ccc(NC(=O)Cc3ccc(N4CC[C@H](F)C4)nc3)n2)cc1 [Example 156, 2-[6-((S)-3-Fluoro-pyrrolidin-1-yl)-pyridin-3-yl]-N-[1-(4-methoxy-benzyl)-1H-pyrazol-3-yl]-acetamide] | 179
COc1ccc(Cn2ccc(NC(=O)Cc3ccc(C(C)C)cc3)n2)cc1 [Example 7, 2-(4-Isopropyl-phenyl)-N-[1-(4-methoxy-benzyl)-1H-pyrazol-3-yl]-acetamide] | 7.9
CCN(CC)c1ccc(CC(=O)Nc2ccn(Cc3ccc(C#N)cn3)n2)cn1 [Example 123, N-[1-(5-Cyano-pyridin-2-ylmethyl)-1H-pyrazol-3-yl]-2-(6-diethylamino-pyridin-3-yl)-acetamide] | 1270
COC(C)c1ccc(CC(=O)Nc2ccn(Cc3ccc(C#N)cc3)n2)cc1 (racemic) [Example 320, rac-N-[1-(4-Cyano-benzyl)-1H-pyrazol-3-yl]-2-[4-(1-methoxy-ethyl)-phenyl]-acetamide] | 99
N#Cc1ccc(Cn2ccc(NC(=O)Cc3ccc(N4CC[C@@H](F)C4)nc3)n2)nc1 [Example 138, N-[1-(5-Cyano-pyridin-2-ylmethyl)-1H-pyrazol-3-yl]-2-[6-((R)-3-fluoro-pyrrolidin-1-yl)-pyridin-3-yl]-acetamide] | 756
O=C(Cc1ccc(-c2ccncc2)cc1)Nc1ccn(Cc2ccc(F)cc2)n1 [Example 84, N-[1-(4-Fluoro-benzyl)-1H-pyrazol-3-yl]-2-(4-pyridin-4-yl-phenyl)-acetamide] | 18
N#Cc1ccc(Cn2ccc(NC(=O)Cc3cnc(N4CCCC4)c(F)c3)n2)nc1 [Example 341, N-[1-(5-Cyano-pyridin-2-ylmethyl)-1H-pyrazol-3-yl]-2-(5-fluoro-6-pyrrolidin-1-yl-pyridin-3-yl)-acetamide] | 64
CC(C)c1ccc(CC(=O)Nc2ccn(Cc3ccc(C#N)cc3)n2)cc1 [Example 11, N-[1-(4-Cyano-benzyl)-1H-pyrazol-3-yl]-2-(4-isopropyl-phenyl)-acetamide] | 5.4
N#Cc1ccc(Cn2ccc(NC(=O)Cc3ccc(S(F)(F)(F)(F)F)cc3)n2)nc1 [Example 336, N-(1-((5-cyanopyridin-2-yl)methyl)-1H-pyrazo1-3-yl)-2-(4-(pentafluoro-λ^6-sulfanyl)phenyl)acetamide] | 34
N#Cc1ccc(Cn2ccc(NC(=O)Cc3ccc(OC4CC(F)(F)C4)cc3)n2)cc1 [Example 273, N-[1-(4-Cyano-benzyl)-1H-pyrazol-3-yl]-2-[4-(3,3-difluoro-cyclobutoxy)-phenyl]-acetamide] | 35
CN(C)c1ccc(CC(=O)Nc2ccn(Cc3ccc(F)c(C(F)(F)F)c3)n2)cc1 [Example 23, 2-(4-Dimethylamino-phenyl)-N-[1-(4-fluoro-3-trifluoromethyl-benzyl)-1H-pyrazol-3-yl]-acetamide] | 6.4
CC1(COc2ccc(CC(=O)Nc3ccn(Cc4cc(F)c(C#N)c(F)c4)n3)cc2)CC(F)(F)C1 [Example 364, N-[1-(4-Cyano-3,5-difluoro-benzyl)-1H-pyrazol-3-yl]-2-[4-(3,3-difluoro-1-methyl-cyclobutylmethoxy)-phenyl]-acetamide] | 62
N#Cc1cc(Cn2ccc(NC(=O)Cc3ccc(F)cc3OCC(F)(F)F)n2)ccc1F [Example 332, N-[1-(3-Cyano-4-fluoro-benzyl)-1H-pyrazol-3-yl]-2-[4-fluoro-2-(2,2,2-trifluoro-ethoxy)-phenyl]-acetamide] | 600
Cc1cn(C)c2cc(CC(=O)Nc3ccn(Cc4ccc(F)c(F)c4)n3)ccc12 [Example 259, N-[1-(3,4-Difluoro-benzyl)-1H-pyrazol-3-yl]-2-(1,3-dimethyl-1H-indol-6-yl)-acetamide] | 4.1
Cn1ccc2cc(CC(=O)Nc3ccn(Cc4ccc(F)cc4)n3)cnc21 [Example 213, N-[1-(4-Fluoro-benzyl)-1H-pyrazol-3-yl]-2-(1-methyl-1H-pyrrolo[2,3-b]pyridin-5-yl)-acetamide] | 31
Cn1ncc2ccc(CC(=O)Nc3ccn(Cc4ccc(F)c(F)c4)n3)cc21 [Example 224, N-[1-(3,4-Difluoro-benzyl)-1H-pyrazol-3-yl]-2-(1-methyl-1H-indazol-6-yl)-acetamide] | 21
N#Cc1ccc(Cn2ccc(NC(=O)Cc3ccc(N4CC(F)(F)C4)nc3)n2)nc1 [Example 142, N-[1-(5-Cyano-pyridin-2-ylmethyl)-1H-pyrazol-3-yl]-2-[6-(3,3-difluoro-azetidin-1-yl)-pyridin-3-yl]-acetamide] | 185
N#Cc1ccc(Cn2ccc(NC(=O)Cc3ccc(OC4CCC4)cc3)n2)nc1 [Example 196, N-[1-(5-Cyano-pyridin-2-ylmethyl)-1H-pyrazol-3-yl]-2-(4-cyclobutoxy-phenyl)-acetamide] | 176
CC1(COc2ccc(CC(=O)Nc3ccn(Cc4cc(F)c(C#N)c(F)c4)n3)cc2)COC1 [Example 362, N-[1-(4-Cyano-3,5-difluoro-benzyl)-1H-pyrazol-3-yl]-2-[4-(3-methyl-oxetan-3-ylmethoxy)-phenyl]-acetamide] | 117

From US9932314B2, “Pyrazole compounds and their use as T-type calcium channel blockers” (IDORSIA PHARMACEUTICALS LTD, priority 2015, dated 2018)
